Where a name gives a salt, the structure may show the parent alone. Read-outs that look alike come from different tables or passages of the source.
Experiments:
h5-HT2A receptors = target: T1, h5-HT2A receptors (Homo sapiens, UniProt P28223); assay: Functional activity, FLIPR calcium assay in CHO cells expressing h5-HT2A; type: cell-based; conditions: for Emax: CHO, read-out: h5-HT2A Relative Efficacy; for EC50: FLIPR, CHO cells
T1 construct: expressed in transfected cells; host or cells: CHO cells
T1 sequence (P28223 whole entry): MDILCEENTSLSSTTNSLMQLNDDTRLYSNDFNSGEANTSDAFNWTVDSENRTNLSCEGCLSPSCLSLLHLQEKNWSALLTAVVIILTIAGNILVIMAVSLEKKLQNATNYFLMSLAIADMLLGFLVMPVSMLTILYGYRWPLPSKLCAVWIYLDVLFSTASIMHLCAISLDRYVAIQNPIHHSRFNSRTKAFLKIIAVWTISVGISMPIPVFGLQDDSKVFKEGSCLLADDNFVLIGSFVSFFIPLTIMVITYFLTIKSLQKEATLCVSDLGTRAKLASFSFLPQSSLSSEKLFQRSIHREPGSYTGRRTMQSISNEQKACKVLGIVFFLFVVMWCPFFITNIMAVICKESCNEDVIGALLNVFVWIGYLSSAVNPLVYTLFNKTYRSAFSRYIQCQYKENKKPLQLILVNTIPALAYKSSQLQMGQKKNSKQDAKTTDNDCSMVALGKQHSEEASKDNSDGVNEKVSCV
Description: (§1) The functional activity of compounds of formula (I) was assayed using a Fluorimetric Imaging Plate reader (FLIPR) in the following manner.
(§2) CHO cells expressing either the h5-HT2C or h5-HT2A receptors were counted and plated into standard 96 well microtitre plates before the day of testing to give a confluent monolayer. The following day the cells were dye loaded with the calcium sensitive dye Fluo 3-AM by incubation with serum free culture maintenance media containing pluronic acid and Fluo 3-AM dissolved in DMSO at 37° C. in a CO2 incubator at 95% humidity for approximately 90 minutes. Unincorporated dye was removed by washing with Hanks balanced salt solution containing 20 mM HEPES and 2.5 mM probenecid (the assay buffer) using an automated cell washer to leave a total volume of 100 μL/well.
(§3) The drug (dissolved in 50 μL of assay buffer) was added at a rate of 70 μL/sec to each well of the FLIPR 96 well plate during fluorescence measurements. The measurements are taken at 1 sec intervals and the maximum fluorescent signal was measured (approx 10-15 secs after drug addition) and compared with the response produced by 10 μM 5-HT (defined as 100%) to which it is expressed as a percentage response (relative efficacy). Dose response curves were constructed using Graphpad Prism (Graph Software Inc.).

h5-HT2C = target: T2, h5-HT2C (Homo sapiens, UniProt P28335); assay: Functional activity, FLIPR calcium assay in CHO cells expressing h5-HT2C; type: cell-based; conditions: for Emax: CHO, read-out: h5-HT2C Relative Efficacy; for EC50: FLIPR, CHO cells
T2 construct: expressed in transfected cells; host or cells: CHO cells
T2 sequence (P28335 33-458): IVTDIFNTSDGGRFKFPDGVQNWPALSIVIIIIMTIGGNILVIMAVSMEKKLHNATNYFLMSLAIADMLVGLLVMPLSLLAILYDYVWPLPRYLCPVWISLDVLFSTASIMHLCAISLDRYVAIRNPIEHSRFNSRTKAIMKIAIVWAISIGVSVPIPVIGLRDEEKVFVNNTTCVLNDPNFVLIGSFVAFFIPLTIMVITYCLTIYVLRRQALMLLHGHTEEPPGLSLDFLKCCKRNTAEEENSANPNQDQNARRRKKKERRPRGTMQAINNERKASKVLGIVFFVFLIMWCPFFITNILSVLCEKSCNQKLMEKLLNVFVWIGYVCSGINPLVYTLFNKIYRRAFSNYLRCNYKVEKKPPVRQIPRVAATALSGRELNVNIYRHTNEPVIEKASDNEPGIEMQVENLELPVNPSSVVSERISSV
Description: as §1, §2, §3

5-HT2A receptor = target: T3, 5-HT2A receptor (Homo sapiens, UniProt P28223); assay: Radioligand binding to the 5-HT2A receptor ([125I]-DOI, CHO cell line)
T3 construct: expressed in transfected cells; host or cells: CHO cell line
T3 sequence (P28223 whole entry): as the sequence (P28223 whole entry) above
Description: (§4) 1. Binding to Serotonin Receptors
(§5) The binding of compounds of formula (I) to serotonin receptors was determined in vitro by standard methods. The preparations were investigated in accordance with the assays given hereinafter.
Method (c): For the binding to the 5-HT2A receptor the 5-HT2A receptors were radiolabelled with [^125I]-DOI. The affinity of the compounds for 5-HT2A receptors in a CHO cell line was determined according to the procedure of D. J. McKenna and S. J. Peroutka, J. Neurosci., 1989, 9/10, 3482-90.

5-HT2C receptor = target: T4, 5-HT2C receptor (Homo sapiens, UniProt P28335); assay: Radioligand binding to the 5-HT2C receptor ([3H]-5-HT, CHO cell line)
T4 construct: expressed in transfected cells; host or cells: CHO cell line
T4 sequence (P28335 33-458): T2 sequence (P28335 33-458)
Description: as §4, §5
Method (a): For the binding to the 5-HT2C receptor the 5-HT2C receptors were radiolabelled with [^3H]-5-HT. The affinity of the compounds for 5-HT2C receptors in a CHO cell line was determined according to the procedure of D. Hoyer, G. Engel and H.O. Kalkman, European J. Pharmacol., 1985, 118, 13-23.

human 5-HT2B receptors = target: T5, human 5-HT2B receptors (Homo sapiens, UniProt P41595); assay: Radioligand binding to the 5-HT2B receptor ([3H]-5-HT, CHO cell line)
T5 construct: expressed in transfected cells; host or cells: CHO cell line
T5 sequence (P41595 whole entry): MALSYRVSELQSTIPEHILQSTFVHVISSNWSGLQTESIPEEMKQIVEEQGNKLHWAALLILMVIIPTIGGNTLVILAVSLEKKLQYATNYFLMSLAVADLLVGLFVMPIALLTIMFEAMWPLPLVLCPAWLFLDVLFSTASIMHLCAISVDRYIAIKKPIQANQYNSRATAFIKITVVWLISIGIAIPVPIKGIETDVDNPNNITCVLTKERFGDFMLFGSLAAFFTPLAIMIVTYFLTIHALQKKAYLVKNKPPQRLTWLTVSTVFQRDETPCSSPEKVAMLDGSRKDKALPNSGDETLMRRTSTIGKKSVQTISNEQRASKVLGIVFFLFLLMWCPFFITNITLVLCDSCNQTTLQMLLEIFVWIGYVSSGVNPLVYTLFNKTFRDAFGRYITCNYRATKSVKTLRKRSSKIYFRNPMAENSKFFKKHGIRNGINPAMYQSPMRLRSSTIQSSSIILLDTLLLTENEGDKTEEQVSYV
Description: as §4, §5
Method (b): For the binding to the 5-HT2B receptor the 5-HT2B receptors were radiolabelled with [^3H]-5-HT. The affinity of the compounds for human 5-HT2B receptors in a CHO cell line was determined according to the procedure of K. Schmuck, C. Ullmer, P. Engels and H. Lubbert, FEBS Lett., 1994, 342, 85-90.

[1] = cited from earlier work
[2] = cited from earlier work; remark: listed apart in the source
[3] = maximum fluorescent signal compared with 10 μM 5-HT (defined as 100%)
[4] = [125I]-DOI, CHO cell line, read-out: Ki(2A)
[5] = [3H]-5-HT, human receptor, CHO cell line, read-out: Ki(2B)
[6] = [3H]-5-HT, CHO cell line, read-out: Ki(2C)

| Molecule | melting point | Emax (h5-HT2A receptors; [3]) | Emax (h5-HT2C; [3]) | EC50 (h5-HT2C) | further results |
| --- | --- | --- | --- | --- | --- |
| C[C@H](N)Cn1c2c(c3ccccc31)CCC2 (as salt: hydrochloride) (hydrate or solvate) [Example 14, (S)-1-(1,2,3,4-tetrahydrocyclopent[b]indol-4-yl)-2-propylamine] | 233 °C |  |  |  |  |
| C[C@H](N)Cn1c2c(c3cc(F)ccc31)CCC2 [Example 2, (S)-1-(7-fluoro-1,2,3,4-tetrahydrocyclopent[b]indol-4-yl)-2-propylamine] |  | 0% | 85% | 347 nM |  |
| CCSc1ccc2c3c(n(C[C@H](C)N)c2c1)CCC3 (as salt: hydrochloride) [Example 27] | 115 to 119 °C |  |  |  |  |
| C[C@H](N)Cn1c2c(c3ccccc31)CCC2 [Example 14, (S)-1-(1,2,3,4-tetrahydrocyclopent[b]indol-4-yl)-2-propylamine] |  | 48% | 80% | 252 nM | EC50 (h5-HT2A receptors): 6250 nM; Ki (5-HT2A receptor): 375 nM; Ki (5-HT2C receptor): 64 nM; Ki (human 5-HT2B receptors): 180 nM |
| Clc1cccc(N2CCNCC2)c1 [mCPP, m-chlorophenylpiperazine] |  |  |  |  | appetite and body weight of obese subjects ([1]; obese male and female subjects, subchronic treatment for 14 days): decreased the appetite and body weight; food intake in female volunteers ([1]; single injection, female volunteers): decreased food intake; food intake in rats [2]: reduce food intake |
| C[C@H](N)Cn1c2c(c3c(Cl)cc(Cl)cc31)CCC2 (as salt: hydrochloride) (hydrate or solvate) [Example 26] | 258 °C |  |  |  |  |
| (R)-1-(7-Fluoro-1,2,3,4-tetrahydro-6-methoxy-cyclopent[b]indol-4-yl)-2-propylamine, hemifumarate [Example 36] |  |  |  | 189 nM | EC50 (h5-HT2A receptors): 1340 nM; h5-HT2A Relative Efficacy (h5-HT2A receptors; [3]): 25%; h5-HT2C Relative Efficacy (h5-HT2C; [3]): 64% |
| C[C@H](N)Cn1c2c(c3c(Cl)cccc31)CCC2 (as salt: fumarate) [Example 4, (S)-1-(8-chloro-1,2,3,4-tetrahydrocyclopent[b]indol-4-yl)-2-propylamine] | 172 to 173 °C (dec.) |  |  |  |  |
| C[C@H](N)Cn1c2c(c3c(Cl)cccc31)CCC2 [Example 4, (S)-1-(8-chloro-1,2,3,4-tetrahydrocyclopent[b]indol-4-yl)-2-propylamine] |  | 60% | 65% | 179 nM |  |
| C[C@H](N)Cn1c2c(c3ccc(F)cc31)CCC2 (as salt: hydrochloride) (hydrate or solvate) [Example 31] | 215 °C |  |  |  |  |
| C[C@@H](N)Cn1c2c(c3cccc(Cl)c31)CCC2 [Example 43] | 299 to 302 °C |  |  |  | Ki (5-HT2A receptor; [4]): 167 nM; Ki (5-HT2C receptor): 62 nM; Ki (human 5-HT2B receptors; [5]): 162 nM |
| FC(F)(F)c1cccc(N2CCNCC2)c1 [TFWPP, trifluoromethylphenylpiperazine] |  |  |  |  | food intake in rats [2]: reduce food intake |
| COc1ccc2c3c(n(C[C@H](C)N)c2c1)CCC3 [Example 11, (S)-1-(6-methoxy-1,2,3,4-tetrahydrocyclopent[b]indol-4-yl)-2-propylamine] |  | 25% | 85% | 89 nM | EC50 (h5-HT2A receptors): 1690 nM; Ki (5-HT2A receptor): 314 nM; Ki (5-HT2C receptor): 63 nM; Ki (human 5-HT2B receptors): 210 nM |
| C[C@H](N)Cn1c2c(c3cc(F)ccc31)CCC2 (as salt: fumarate) (hydrate or solvate) [Example 2, (S)-1-(7-fluoro-1,2,3,4-tetrahydrocyclopent[b]indol-4-yl)-2-propylamine] | 161 to 162 °C |  |  |  |  |
| C[C@H](N)Cn1c2c(c3c(Cl)cc(Cl)cc31)CCC2 [Example 26] |  |  |  |  | Ki (5-HT2A receptor; [4]): 144 nM; Ki (5-HT2C receptor; [6]): 106 nM; Ki (human 5-HT2B receptors; [5]): 127 nM |
| CC(N)Cn1c2c(c3cc(F)c(F)cc31)CCC2 (stereo not shown) [Example 33] |  | 22% | 81% | 316 nM | Ki (5-HT2A receptor): 233 nM; Ki (5-HT2C receptor): 63 nM; Ki (human 5-HT2B receptors): 152 nM |
| COc1ccc2c3c(n(C[C@H](C)N)c2c1)CCC3 (as salt: fumarate) [Example 11, (S)-1-(6-methoxy-1,2,3,4-tetrahydrocyclopent[b]indol-4-yl)-2-propylamine] | 182 °C |  |  |  |  |
| C[C@H](N)Cn1c2c(c3c(F)c(F)ccc31)CCC2 [Example 1, (S)-1-(7,8-Difluoro-1,2,3,4-tetrahydrocyclopent[b]indol-4-yl)-2-propylamine fumarate] |  | 0% | 77% | 272 nM | Ki (5-HT2A receptor): 122 nM; Ki (5-HT2C receptor): 65 nM; Ki (human 5-HT2B receptors): 40 nM |
| C[C@@H](N)Cn1c2c(c3ccccc31)CCC2 [Example 30, (R)-1-(1,2,3,4-tetrahydrocyclopent[b]indol-4-yl)-2-propylamine] |  | 43% | 72% | 90 nM | EC50 (h5-HT2A receptors): 361 nM; Ki (5-HT2A receptor): 48 nM; Ki (5-HT2C receptor): 19 nM; Ki (human 5-HT2B receptors): 31 nM |
| C[C@H](N)Cn1c2c(c3c(Cl)c(F)ccc31)CCC2 [Example 18, (S)-1-(8-chloro-7-fluoro-1,2,3,4-tetrahydrocyclopent[b]indol-4-yl)-2-propylamine] |  | 63% | 75% | 36 nM | EC50 (h5-HT2A receptors): 2100 nM |
| C[C@@H](N)Cn1c2c(c3ccccc31)CCC2 (as salt: hydrochloride) (hydrate or solvate) [Example 30, (R)-1-(1,2,3,4-tetrahydrocyclopent[b]indol-4-yl)-2-propylamine] | 225 to 231 °C (dec.) |  |  |  |  |
| COc1cc2c(cc1F)c1c(n2C[C@H](C)N)CCC1 [Example 37, (S)-1-(7-fluoro-6-methoxy-1,2,3,4-tetrahydrocyclopent[b]indol-4-yl)-2-propylamine] |  | 28% | 84% | 127 nM | EC50 (h5-HT2A receptors): 2990 nM; Ki (5-HT2A receptor): 86 nM; Ki (5-HT2C receptor): 41 nM; Ki (human 5-HT2B receptors): 65 nM |
| C[C@H](N)Cn1c2c(c3cc(F)c(Cl)cc31)CCC2 [Example 16] |  | 0% | 86% | 307 nM |  |
| CCSc1ccc2c3c(n(C[C@H](C)N)c2c1)CCC3 [Example 27] |  |  |  |  | Ki (5-HT2A receptor; [4]): 545 nM; Ki (5-HT2C receptor; [6]): 141 nM; Ki (human 5-HT2B receptors; [5]): 496 nM |
| C[C@H](N)Cn1c2c(c3ccc(F)cc31)CCC2 [Example 31] |  |  |  |  | Ki (5-HT2A receptor; [4]): 550 nM; Ki (5-HT2C receptor): 65 nM; Ki (human 5-HT2B receptors; [5]): 161 nM |
| COc1c(F)ccc2c1c1c(n2C[C@H](C)N)CCC1 [Example 42, (S)-1-(7-fluoro-8-methoxy-1,2,3,4-tetrahydrocyclopent[b]indol-4yl)-2-propylamine] |  | 51% | 74% | 87 nM | EC50 (h5-HT2A receptors): 805 nM |
| COc1cc2c(cc1F)c1c(n2C[C@H](C)N)CCC1 (as salt: fumarate) [Example 37, (S)-1-(7-fluoro-6-methoxy-1,2,3,4-tetrahydrocyclopent[b]indol-4-yl)-2-propylamine] | 213 °C (dec.) |  |  |  |  |
| C[C@H](N)Cn1c2c(c3c(Cl)c(F)ccc31)CCC2 (as salt: hydrochloride) (hydrate or solvate) [Example 18, (S)-1-(8-chloro-7-fluoro-1,2,3,4-tetrahydrocyclopent[b]indol-4-yl)-2-propylamine] | 252 to 253 °C |  |  |  |  |

— patent US6706750B1, “Indole derivatives process for their preparation, pharmaceutical compositions containing them and their medicinal application” (priority 1999, dated 2004)
